pIC50: −log10 of the molar value.
What was measured:
Assay in all cases: cells
Format in all cases: functional, cell-based, Homo sapiens
[1] = system: CGTH-W-1; settings: Homo sapiens, CGTH-W-1;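 further: growth inhibition of human CGTH-W-1 cells measured by cell viability assay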
Description: SANGER: Inhibition of human CGTH-W-1 cell growth in a cell viability assay.

[2] = system: NCI-H1838; settings: Homo sapiens, NCI-H1838;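 further: growth inhibition of NCI-H1838 cells, determined with a cell viability readout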
Description: SANGER: Inhibition of human NCI-H1838 cell growth in a cell viability assay.

[3] = system: Becker; settings: Homo sapiens, Becker;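 further: growth inhibition of Becker cells, read out with a cell viability assay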
Description: SANGER: Inhibition of human Becker cell growth in a cell viability assay.

[4] = system: HOP-62; settings: Homo sapiens, HOP-62;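 further: cell growth inhibition determined with a viability assay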
Description: SANGER: Inhibition of human HOP-62 cell growth in a cell viability assay.

[5] = system: NCI-H1581; settings: Homo sapiens, NCI-H1581;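 further: cell growth inhibition read out by a viability assay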
Description: SANGER: Inhibition of human NCI-H1581 cell growth in a cell viability assay.

[6] = system: COR-L88; settings: Homo sapiens, COR-L88;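 further: growth inhibition of COR-L88 cells, read out with a cell viability assay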
Description: SANGER: Inhibition of human COR-L88 cell growth in a cell viability assay.

[7] = system: GI-ME-N; settings: Homo sapiens, GI-ME-N;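 further: growth inhibition of human GI-ME-N cells, read out with a cell viability assay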
Description: SANGER: Inhibition of human GI-ME-N cell growth in a cell viability assay.

[8] = system: SK-PN-DW; settings: Homo sapiens, SK-PN-DW;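 further: growth inhibition measured with a viability assay on these cells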
Description: SANGER: Inhibition of human SK-PN-DW cell growth in a cell viability assay.

[9] = system: IST-SL1; settings: Homo sapiens, IST-SL1;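 further: growth inhibition of human IST-SL1 cells, read out with a cell viability assay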
Description: SANGER: Inhibition of human IST-SL1 cell growth in a cell viability assay.

[10] = system: CCRF-CEM; settings: Homo sapiens, CCRF-CEM;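 further: inhibition of CCRF-CEM cell growth, measured by a cell viability assay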
Description: SANGER: Inhibition of human CCRF-CEM cell growth in a cell viability assay.

[11] = system: GB-1; settings: Homo sapiens, GB-1;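 further: growth of GB-1 cells judged by a viability assay, IC50 marks the concentration inhibiting growth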
Description: SANGER: Inhibition of human GB-1 cell growth in a cell viability assay.

[12] = system: EW-18; settings: Homo sapiens, EW-18;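 further: growth inhibition of EW-18 cells, read out by a cell viability assay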
Description: SANGER: Inhibition of human EW-18 cell growth in a cell viability assay.

[13] = system: KALS-1; settings: Homo sapiens, KALS-1;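 further: growth inhibition of KALS-1 cells, determined with a cell viability assay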
Description: SANGER: Inhibition of human KALS-1 cell growth in a cell viability assay.

[14] = system: NCI-H526; settings: Homo sapiens, NCI-H526;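 further: growth inhibition of the human NCI-H526 cell line, measured by a cell viability assay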
Description: SANGER: Inhibition of human NCI-H526 cell growth in a cell viability assay.

[15] = system: ONS-76; settings: Homo sapiens, ONS-76;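 further: growth inhibition of human ONS-76 cells, read out with a cell viability assay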
Description: SANGER: Inhibition of human ONS-76 cell growth in a cell viability assay.

[16] = system: MHH-NB-11; settings: Homo sapiens, MHH-NB-11;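 further: growth inhibition of human MHH-NB-11 cells, read out by a cell viability assay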
Description: SANGER: Inhibition of human MHH-NB-11 cell growth in a cell viability assay.

[17] = system: SW 962; settings: Homo sapiens, SW 962;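 further: growth inhibition of human SW962 cells, read out by a cell viability assay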
Description: SANGER: Inhibition of human SW962 cell growth in a cell viability assay.

[18] = system: LB2241-RCC; settings: Homo sapiens, LB2241-RCC;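 further: cell viability assay measuring how strongly the cultured human renal carcinoma line is prevented from growing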
Description: SANGER: Inhibition of human LB2241-RCC cell growth in a cell viability assay.

[19] = system: EOL1; settings: Homo sapiens, EOL1;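 further: growth inhibition of EoL-1 cells, read out by a cell viability assay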
Description: SANGER: Inhibition of human EoL-1-cell cell growth in a cell viability assay.

[20] = system: ML-2; settings: Homo sapiens, ML-2;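 further: growth inhibition of ML-2 cells, measured with a cell viability readout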
Description: SANGER: Inhibition of human ML-2 cell growth in a cell viability assay.

[21] = system: NCI-H1299; settings: Homo sapiens, NCI-H1299;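 further: growth inhibition of human NCI-H1299 cells, read out by a cell viability assay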
Description: SANGER: Inhibition of human NCI-H1299 cell growth in a cell viability assay.

[22] = system: TE-5; settings: Homo sapiens, TE-5;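 further: inhibition of cell growth, read out by a cell viability assay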
Description: SANGER: Inhibition of human TE-5 cell growth in a cell viability assay.

[23] = system: A3-KAW; settings: Homo sapiens, A3-KAW;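 further: growth inhibition of human A3-KAW cells, read out with a cell viability assay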
Description: SANGER: Inhibition of human A3-KAW cell growth in a cell viability assay.

[24] = system: LB373-MEL-D; settings: Homo sapiens, LB373-MEL-D;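 further: growth inhibition of the cell line, read out in a cell viability assay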
Description: SANGER: Inhibition of human LB373-MEL-D cell growth in a cell viability assay.

[25] = system: NKM-1; settings: Homo sapiens, NKM-1;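 further: growth inhibition of NKM-1 cells, read out with a cell viability assay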
Description: SANGER: Inhibition of human NKM-1 cell growth in a cell viability assay.

[26] = system: GR-ST; settings: Homo sapiens, GR-ST
Description: SANGER: Inhibition of human GR-ST cell growth in a cell viability assay.

[27] = system: LB1047-RCC; settings: Homo sapiens, LB1047-RCC;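 further: inhibition of cell growth, determined with a cell viability assay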
Description: SANGER: Inhibition of human LB1047-RCC cell growth in a cell viability assay.

[28] = system: MMAC-SF; settings: Homo sapiens, MMAC-SF;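 further: growth inhibition of human MMAC-SF cells, read out with a cell viability assay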
Description: SANGER: Inhibition of human MMAC-SF cell growth in a cell viability assay.

[29] = system: HC-1; settings: Homo sapiens, HC-1;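 further: growth inhibition of HC-1 cells measured by a cell viability assay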
Description: SANGER: Inhibition of human HC-1 cell growth in a cell viability assay.

[30] = system: TGBC24TKB; settings: Homo sapiens, TGBC24TKB;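 further: growth inhibition of human TGBC24TKB cells, read out with a cell viability assay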
Description: SANGER: Inhibition of human TGBC24TKB cell growth in a cell viability assay.

[31] = system: KP-N-YS; settings: Homo sapiens, KP-N-YS;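 further: cell viability assay measuring inhibition of cell line growth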
Description: SANGER: Inhibition of human KP-N-YS cell growth in a cell viability assay.

[32] = system: K562; settings: Homo sapiens, K562
Description: SANGER: Inhibition of human K-562 cell growth in a cell viability assay.

[33] = system: KLE; settings: Homo sapiens, KLE;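 further: growth inhibition of human KLE cells, read out with a cell viability assay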
Description: SANGER: Inhibition of human KLE cell growth in a cell viability assay.

[34] = system: NMC-G1; settings: Homo sapiens, NMC-G1;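 further: growth inhibition of the NMC-G1 cell line, measured with a cell viability read-out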
Description: SANGER: Inhibition of human NMC-G1 cell growth in a cell viability assay.

[35] = system: ES8; settings: Homo sapiens, ES8;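 further: growth inhibition of human ES8 cells, read out with a cell viability assay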
Description: SANGER: Inhibition of human ES8 cell growth in a cell viability assay.

[36] = system: VA-ES-BJ; settings: Homo sapiens, VA-ES-BJ;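 further: growth inhibition of the VA-ES-BJ cell line, read out by a cell viability assay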
Description: SANGER: Inhibition of human VA-ES-BJ cell growth in a cell viability assay.

[37] = system: ALL-PO; settings: Homo sapiens, ALL-PO;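 further: growth inhibition of ALL-PO cells, read out by a cell viability assay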
Description: SANGER: Inhibition of human ALL-PO cell growth in a cell viability assay.

[38] = system: D-392MG; settings: Homo sapiens, D-392MG
[39] = system: SK-UT-1; settings: Homo sapiens, SK-UT-1;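 further: growth inhibition of SK-UT-1 cells, measured by a cell viability assay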
Description: SANGER: Inhibition of human SK-UT-1 cell growth in a cell viability assay.

[40] = system: MPP-89; settings: Homo sapiens, MPP-89;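 further: growth inhibition of human MPP-89 cells, read out with a cell viability assay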
Description: SANGER: Inhibition of human MPP-89 cell growth in a cell viability assay.

[41] = system: KM12; settings: Homo sapiens, KM12;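 further: KM12 cell growth inhibition, read out with a cell viability assay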
Description: SANGER: Inhibition of human KM12 cell growth in a cell viability assay.

[42] = system: KU812 cell line; settings: Homo sapiens, KU812;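 further: growth inhibition of KU812 cells, read out with a cell viability assay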
Description: SANGER: Inhibition of human KU812 cell growth in a cell viability assay.

[43] = system: KY821; settings: Homo sapiens, KY821;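 further: growth inhibition of human KY821 cells, read out by a cell viability assay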
Description: SANGER: Inhibition of human KY821 cell growth in a cell viability assay.

[44] = system: KGN; settings: Homo sapiens, KGN;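 further: growth inhibition of KGN cells, read out with a cell viability assay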
Description: SANGER: Inhibition of human KGN cell growth in a cell viability assay.

[45] = system: LB831-BLC; settings: Homo sapiens, LB831-BLC;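 further: growth inhibition of LB831-BLC cells, read out with a cell viability assay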
Description: SANGER: Inhibition of human LB831-BLC cell growth in a cell viability assay.

[46] = system: HH; settings: Homo sapiens, HH
Description: SANGER: Inhibition of human HH cell growth in a cell viability assay.

[47] = system: BE-13; settings: Homo sapiens, BE-13;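 further: growth inhibition of human BE-13 cells, measured with a cell viability assay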
Description: SANGER: Inhibition of human BE-13 cell growth in a cell viability assay.

[48] = system: A101D; settings: Homo sapiens, A101D;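 further: growth inhibition of the cell line, measured with a viability assay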
Description: SANGER: Inhibition of human A101D cell growth in a cell viability assay.

## CCC/C=C/C=C/C(=O)O[C@H]1/C(=C/C(=O)OC)C[C@H]2C[C@H]([C@@H](C)O)OC(=O)C[C@H](O)C[C@@H]3C[C@H](OC(C)=O)C(C)(C)[C@](O)(C[C@@H]4C/C(=C/C(=O)OC)C[C@H](/C=C/C(C)(C)[C@]1(O)O2)O4)O3 [BRYOSTATIN 1]
[1]
  pIC50: < 8.10
[2]
  pIC50: < 8.10
[3]
  pIC50: < 8.10
[4]
  pIC50: < 8.10
[5]
  pIC50: < 8.10
[6]
  pIC50: < 8.10
[7]
  pIC50: < 8.10
[8]
  pIC50: < 8.10
[9]
  pIC50: < 8.10
[10]
  pIC50: < 8.10
[11]
  pIC50: < 8.10
[12]
  pIC50: < 8.10
[13]
  pIC50: < 8.10
[14]
  pIC50: < 8.10
[15]
  pIC50: < 8.10
[16]
  pIC50: < 8.10
[17]
  pIC50: < 8.10
[18]
  pIC50: < 8.10
[19]
  pIC50: < 8.10
[20]
  pIC50: < 8.10
[21]
  pIC50: < 8.10
[22]
  pIC50: < 8.10
[23]
  pIC50: < 8.10
[24]
  pIC50: < 8.10
[25]
  pIC50: < 8.10
[26]
  pIC50: < 8.10
[27]
  pIC50: < 8.10
[28]
  pIC50: < 8.10
[29]
  pIC50: < 8.10
[30]
  pIC50: < 8.10
[31]
  pIC50: < 8.10
[32]
  pIC50: < 8.10
[33]
  pIC50: < 8.10
[34]
  pIC50: < 8.10
[35]
  pIC50: < 8.10
[36]
  pIC50: < 8.10
[37]
  pIC50: < 8.10
[38]
  pIC50: < 8.10
[39]
  pIC50: < 8.10
[40]
  pIC50: < 8.10
[41]
  pIC50: < 8.10
[42]
  pIC50: < 8.10
[43]
  pIC50: < 8.10
[44]
  pIC50: < 8.10
[45]
  pIC50: < 8.10
[46]
  pIC50: < 8.10
[47]
  pIC50: < 8.10
[48]
  pIC50: < 8.10

## Oc1ccc2ccccc2c1SSc1c(O)ccc2ccccc12
[1]
  pIC50: < 4.49
[2]
  pIC50: < 4.49
[3]
  pIC50: < 4.49
[4]
  pIC50: < 4.49
[5]
  pIC50: < 4.49
[6]
  pIC50: < 4.49
[7]
  pIC50: < 4.49
[8]
  pIC50: 4.55
[9]
  pIC50: < 4.49
[10]
  pIC50: 5.22
[11]
  pIC50: 5.58
[12]
  pIC50: < 4.49
[13]
  pIC50: < 4.49
[14]
  pIC50: < 4.49
[15]
  pIC50: < 4.49
[16]
  pIC50: < 4.49
[17]
  pIC50: < 4.49
[18]
  pIC50: 4.55
[19]
  pIC50: < 4.49
[20]
  pIC50: 4.58
[21]
  pIC50: < 4.49
[22]
  pIC50: < 4.49
[23]
  pIC50: < 4.49
[24]
  pIC50: < 4.49
[25]
  pIC50: < 4.49
[26]
  pIC50: 4.96
[27]
  pIC50: < 4.49
[28]
  pIC50: < 4.49
[29]
  pIC50: 5.09
[30]
  pIC50: < 4.49
[31]
  pIC50: < 4.49
[32]
  pIC50: < 4.49
[33]
  pIC50: < 4.49
[34]
  pIC50: < 4.49
[35]
  pIC50: < 4.49
[36]
  pIC50: < 4.49
[37]
  pIC50: 4.86
[38]
  pIC50: < 4.49
[39]
  pIC50: < 4.49
[40]
  pIC50: < 4.49
[41]
  pIC50: < 4.49
[42]
  pIC50: 5.56
[43]
  pIC50: < 4.49
[44]
  pIC50: 4.91
[45]
  pIC50: < 4.49
[46]
  pIC50: 4.97
[47]
  pIC50: < 4.49
[48]
  pIC50: < 4.49

## N#Cc1c(O)c2c(-c3ccc(-c4ccccc4O)cc3)csc2[nH]c1=O
[1]
  pIC50: < 5.99
[2]
  pIC50: < 5.99
[3]
  pIC50: < 5.99
[4]
  pIC50: < 5.99
[5]
  pIC50: < 5.99
[6]
  pIC50: 6.14
[7]
  pIC50: < 5.99
[8]
  pIC50: < 5.99
[9]
  pIC50: < 5.99
[10]
  pIC50: 6.84
[11]
  pIC50: < 5.99
[12]
  pIC50: 6.35
[13]
  pIC50: < 5.99
[14]
  pIC50: 6.33
[15]
  pIC50: < 5.99
[16]
  pIC50: 6.49
[17]
  pIC50: < 5.99
[18]
  pIC50: < 5.99
[19]
  pIC50: 7.02
[20]
  pIC50: 7.36
[21]
  pIC50: < 5.99
[22]
  pIC50: < 5.99
[23]
  pIC50: 7.04
[24]
  pIC50: < 5.99
[25]
  pIC50: < 5.99
[26]
  pIC50: 6.66
[27]
  pIC50: < 5.99
[28]
  pIC50: < 5.99
[29]
  pIC50: 7.08
[30]
  pIC50: < 5.99
[31]
  pIC50: < 5.99
[32]
  pIC50: < 5.99
[33]
  pIC50: < 5.99
[34]
  pIC50: < 5.99
[35]
  pIC50: < 5.99
[36]
  pIC50: < 5.99
[37]
  pIC50: 7.24
[38]
  pIC50: < 5.99
[39]
  pIC50: < 5.99
[40]
  pIC50: < 5.99
[41]
  pIC50: 7.49
[42]
  pIC50: < 5.99
[43]
  pIC50: 6.09
[44]
  pIC50: < 5.99
[45]
  pIC50: < 5.99
[46]
  pIC50: 6.34
[47]
  pIC50: < 5.99
[48]
  pIC50: < 5.99

Source: ChEMBL document CHEMBL1201861, “Genomics of Drug Sensitity in Cancer screening data, Wellcome Trust Sanger Institute”
